For experiment [1], the target named is T1, μ-opioid receptor (Homo sapiens (Human), UniProt P35372). The experiment in a line: μ-opioid receptor [35S]GTPγS functional assay, HEK-293 or CHO cells. It counts as biochemical. Particulars: for EC50: GTPγS; for Emax: relative to DAMGO. Here is the method:
(§1) μ-Opioid Receptor Functional Assay Procedures: [^35S]GTPγS functional assays were conducted using freshly thawed μ-receptor membranes prepared in-house from a cell line expressing recombinant μ opioid receptor in a HEK-293, CHO or U-2 OS cell background, or purchased from a commercial source (Perkin Elmer, Shelton, Conn.; or DiscovRx, Fremont, Calif.). Assay reactions were prepared by sequentially adding the following reagents to binding buffer (100 mM NaCl, 10 mM MgCl2, 20 mM HEPES, pH 7.4) on ice (final concentrations indicated): membrane protein (0.026 mg/mL), saponin ([…]), GDP ([…]) and [^35S]GTPγS (0.20 nM; Perkin Elmer, Shelton, Conn.). The prepared membrane solution (190 μl/well) was transferred to 96-shallow well polypropylene plates containing 10 μl of 20× concentrated stock solutions of the agonist [D-Ala^2, N-methyl-Phe^4 Gly-ol^5]-enkephalin (DAMGO) prepared in dimethyl sulfoxide (DMSO). Plates were incubated for 30 min at about 25° C. with shaking. Reactions were terminated by rapid filtration onto 96-well Unifilter GF/B filter plates (Perkin Elmer, Shelton, Conn.) using a 96-well tissue harvester (Perkin Elmer, Shelton, Conn.) followed by three filtration washes with 200 μl of ice-cold wash buffer (10 mM NaH2PO4, 10 mM Na2HPO4, pH 7.4). Filter plates were subsequently dried at 50° C. for 2-3 hours. BetaScint scintillation cocktail (Perkin Elmer, Shelton, Conn.) was added (50 μl/well) and plates were counted using a Packard Top-Count for 1 min/well. Data were analyzed using the sigmoidal dose-response curve fitting functions in GraphPad PRISM v. 3.0, or an in-house function for non-linear, sigmoidal dose-response curve-fitting.
(§2) μ-Opioid Receptor Functional Data: μ GTP EC50 is the concentration of a compound providing 50% of the maximal response for the compound at a μ-opioid receptor.
(§3) μ GTP Emax (%) is the maximal effect elicited by a compound relative to the effect elicited by DAMGO, a standard μ agonist. Generally, the μ GTP Emax (%) value measures the efficacy of a compound to treat or prevent pain or other Conditions.
(§4) In TABLE 2, activity response of certain Compounds of the Invention to the μ-, δ- and κ-opioid receptors was determined as described above for functional assays using HEK-293 or CHO cells.
Background: GTPγS is a poorly hydrolysed GTP analogue; its binding reports G protein activation.

The target of experiment [2] is T2, κ opioid receptor (Homo sapiens (Human), UniProt P41145). The experiment in a line: κ-opioid receptor [35S]GTPγS functional assay, HEK-293 or CHO cells. It counts as biochemical. Particulars: for EC50: GTPγS; for Emax: relative to U69,593. Here is the method: (§5) κ-Opioid Receptor Functional Assay Procedures: Functional [^35S]GTPγS binding assays were conducted as follows. κ opioid receptor membrane solution was prepared by sequentially adding final concentrations of 0.026 μg/μl κ membrane protein (in-house), 10 μg/mL saponin, 3 μM GDP and 0.20 nM [^35S]GTPγS to binding buffer (100 mM NaCl, 10 mM MgCl2, 20 mM HEPES, pH 7.4) on ice. The prepared membrane solution (190 μl/well) was transferred to 96-shallow well polypropylene plates containing 10 μl of 20× concentrated stock solutions of agonist prepared in DMSO. Plates were incubated for 30 min at a temperature of about 25° C. with shaking. Reactions were terminated by rapid filtration onto 96-well Unifilter GF/B filter plates (Perkin Elmer, Shelton, Conn.) using a 96-well tissue harvester (Packard) and followed by three filtration washes with 200 μl ice-cold binding buffer (10 mM NaH2PO4, 10 mM Na2HPO4, pH 7.4). Filter plates were subsequently dried at 50° C. for 2-3 hours. Fifty μl/well scintillation cocktail (Perkin Elmer, Shelton, Conn.) was added and plates were counted in a Packard Top-Count for 1 min/well.
(§6) κ-Oploid Receptor Functional Data: κ GTP EC50 is the concentration of a compound providing 50% of the maximal response for the compound at a K receptor.
(§7) κ GTP Emax (%) is the maximal effect elicited by a compound relative to the effect elicited by U69,593.
as §4

For experiment [3], the target named is recombinant human kappa opioid receptor (κ) (Homo sapiens (Human), UniProt P41145). In words: κ-opioid receptor radioligand dose-displacement binding assay ([3H]-U69,593). How it is done: κ-Opioid Receptor Binding Assay Procedures: Membranes from HEK-293 cells, CHO or U-2 OS cells expressing the recombinant human kappa opioid receptor (κ) (cloned in house) were prepared by lysing cells in ice cold hypotonic buffer (2.5 mM MgCl2, 50 mM HEPES, pH 7.4) (10 mL/10 cm dish) followed by homogenization with a tissue grinder/Teflon pestle. Membranes were collected by centrifugation at 30,000×g for 15 min at 4° C. and pellets were resuspended in hypotonic buffer to a final concentration of 1-3 mg/mL. Protein concentrations were determined using the BioRad protein assay reagent with bovine serum albumen as standard. Aliquots of κ receptor membranes were stored at −80° C.
Radioligand dose displacement assays used 0.4 nM [^3H]-U69,593 (GE Healthcare, Piscataway, N.J.; 40 Ci/mmole) with 15 μg membrane protein (recombinant κ opioid receptor expressed in HEK 293 cells; in-house prep) in a final volume of 200 μl binding buffer (5% DMSO, 50 mM Trizma base, pH 7.4). Non-specific binding was determined in the presence of 10 μM unlabeled naloxone or U69,593. All reactions were performed in 96-well polypropylene plates for 1 hour at a temperature of about 25° C. Binding reactions were terminated by rapid filtration onto 96-well Unifilter GF/C filter plates (Perkin Elmer, Shelton, Conn.) presoaked in 0.5% polyethylenimine (Sigma). Harvesting was performed using a 96-well tissue harvester (Perkin Elmer, Shelton, Conn.) followed by five filtration washes with 200 μl ice-cold binding buffer. Filter plates were subsequently dried at 50° C. for 1-2 hours. Fifty μl/well scintillation cocktail (Perkin Elmer, Shelton, Conn.) was added and plates were counted in a Packard Top-Count for 1 min/well.
In TABLE 1, binding affinity of certain Compounds of the Invention to the μ-, δ- and κ-opioid receptors was determined as described above.

Experiment [4] addresses T1, μ-opioid receptor. The experiment in a line: μ-opioid receptor [35S]GTPγS functional assay, U-2 OS cells. Particulars: for EC50: GTPγS; for Emax: relative to DAMGO. The class given is biochemical. Here is the method:
as §1, §2, §3
(§8) The following TABLE 3 provides results on the activity response of certain Compounds of the Invention at the μ- and κ-opioid receptors determined as described above using U-2 OS cells.

Experiment [5] has as its target T2, κ opioid receptor. In words: κ-opioid receptor [35S]GTPγS functional assay, U-2 OS cells. The class given is biochemical. Particulars: for EC50: GTPγS; for Emax: relative to U69,593. How it is done:
as §5, §6, §7, §8

Turning to `COc1ccc(CN2C=C3[C@H]4Cc5ccc(OC)cc5[C@@]3(CCN4CC3CC3)CC2=O)cc1` [Compound 2, (5R,10bR)-13-(cyclopropylmethyl)-9-methoxy-3-(4-methoxybenzyl)-5,6-dihydro-1H-5,10b-(epiminoethano)benzo[f]isoquinolin-2(3H)-one], the EC50 (usually the midpoint of the concentration-response curve) was 268 ± 44 nM in experiment [1] and 714 ± 256 nM in experiment [2]. Moreover, the maximal response (Emax) (as a rule, the size of the effect at its maximum, as opposed to the concentration needed) worked out at 95.3% in experiment [1] and 68.8% in experiment [2].
`COc1ccc2c(c1)[C@]13CCN(CC4CC4)[C@H](C2)[C@@H]1CNC(=O)C3` [Compound 3, (4aS,5R,10bS)-13-(cyclopropylmethyl)-9-methoxy-4,4-a,5,6-tetrahydro-1H-5,10b-(epiminoethano)benzo[f]isoquinolin-2(3H)-one]: the Ki (as a rule, a dissociation constant, usually derived from enzyme kinetics or from competition with a known ligand) in experiment [3] was 5.84 ± 0.59 nM. Further, in experiment [1], the 50% effective concentration (EC50) worked out at 856 ± 48.7 nM and the Emax is 62.7%. Also, in experiment [2], a half-maximal effect (EC50) was put at 435 ± 74 nM and the Emax was 84%.
In the same order, the values of `COc1ccc(CN2CC[C@]34CCN(CC5CC5)[C@H](Cc5ccc(OC)cc53)[C@@H]4C2)cc1` [Compound 9, (4aS,5R,10bR)-13-(cyclopropylmethyl)-9-methoxy-3-(4-methoxybenzyl)-2,3,4,4a,5,6-hexahydro-1H-5,10b-(epiminoethano)benzo[f]isoquinoline] are 204 ± 48.6 nM, 732 ± 70.1 nM, 89%, 1990 ± 339 nM and 46.7%.
In the same order, the values of `COc1ccc2c(c1)[C@@]13CCNC[C@H]1[C@@H](C2)N(CC1CC1)CC3` [Compound 10, (4aS,5R,10bR)-13-(cyclopropylmethyl)-9-methoxy-2,3,4,4a,5,6-hexahydro-1H-5,10b-(epiminoethano)benzo[f]isoquinoline] are 37 ± 7.96 nM, 2180 ± 394 nM, 66.7%, 2180 ± 562 nM and 71.3%.
For the compound `NC(=O)CN1CC[C@]23CCN(CC4CC4)[C@H](Cc4ccc(O)cc42)[C@@H]3C1` [Compound 11, 2-((4aS,5R,10bR)-13-(cyclopropylmethyl)-9-hydroxy-4,4-a,5,6-tetrahydro-1H-5,10b-(epiminoethano)benzo[f]isoquinolin-3(2H)-yl)acetamide], the Ki in experiment [3] was found to be 0.26 nM. The EC50 worked out at 2.44 ± 0.76 nM in experiment [1], 5.25 ± 1.09 nM in experiment [2], 2.41 ± 0.36 nM in experiment [4] and 0.92 ± 0.15 nM in experiment [5]. Also, the Emax in experiment [1] was found to be 87.2%; in experiment [2] it was 63%; in experiment [4], 39.3 ± 3.28%; in experiment [5] it was 102 ± 2.33%.
Regarding `Oc1ccc(CN2CC[C@]34CCN(CC5CC5)[C@H](Cc5ccc(O)cc53)[C@@H]4C2)cc1` [Compound 12, (4aS,5R,10bR)-13-(cyclopropylmethyl)-3-(4-hydroxybenzyl)-2,3,4,4a,5,6-hexahydro-1H-5,10b-(epiminoethano)benzo[f]isoquinolin-9-ol], the Ki in experiment [3] came out at 0.98 ± 0.25 nM. Also, the EC50 in experiment [1] worked out at 6.87 ± 0.84 nM; in experiment [2], 20.8 ± 2.53 nM; in experiment [4], 7.11 ± 2.99 nM; in experiment [5], 6.51 ± 1.03 nM. Besides, the Emax in experiment [1] was 58%; in experiment [2] it was 54.3%; in experiment [4], 47 ± 8.14%; in experiment [5] it was 110 ± 2.73%.
Regarding `C[C@H](N)C(=O)N1CC[C@]23CCN(CC4CC4)[C@H](Cc4ccc(O)cc42)[C@@H]3C1` [Compound 14, (S)-2-amino-1-((4aS,5R,10bS)-13-(cyclopropylmethyl)-9-hydroxy-4,4-a,5,6-tetrahydro-1H-5,10b-(epiminoethano)benzo[f]isoquinolin-3(2H)-yl)propan-1-one], the inhibition constant (Ki) in experiment [3] is 0.09 ± 0.02 nM. Besides, the EC50 was 4.62 ± 1.55 nM in experiment [1], 1.98 ± 0.51 nM in experiment [2], 9.82 ± 1.96 nM in experiment [4] and 0.16 ± 0.025 nM in experiment [5]. Moreover, the Emax in experiment [1] turned out to be 82.7%; in experiment [2] it was 86%; in experiment [4], 35.3 ± 4.18%; in experiment [5], 104 ± 3.61%.
For the compound `O=C(O)CN1CC[C@]23CCN(CC4CC4)[C@H](Cc4ccc(O)cc42)[C@@H]3C1` [Compound 15, 2-((4aS,5R,10bR)-13-(cyclopropylmethyl)-9-hydroxy-4,4-a,5,6-tetrahydro-1H-5,10b-(epiminoethano)benzo[f]isoquinolin-3(2H)-yl)acetic acid], in experiment [3], the Ki is 2.52 ± 0.97 nM. The EC50 in experiment [1] was found to be 28.6 ± 9.31 nM; in experiment [2] it was 55 ± 18.9 nM; in experiment [4], 20.8 ± 0.89 nM; in experiment [5], 5.44 ± 0.39 nM. Moreover, the Emax in experiment [1] is 53.3%; in experiment [2], 73.3%; in experiment [4], 27 ± 3%; in experiment [5] it was 108 ± 4.7%.
